{"source": "patent US9101137B2", "about": "(priority 2011, dated 2015)", "type_in_all_cases": "in vivo, Magnaporthe grisea", "key": {"rice blast disease [1]": {"tested_on": "rice blast disease", "details": "application concentration 20 ppm; rice (Nanatsuboshi), spray; lesion area after 5 days"}, "rice blast disease [2]": {"tested_on": "rice blast disease", "details": "application concentration 10 ppm; rice (Nanatsuboshi), spray; lesion area after 6 days; average of duplicate"}, "rice blast disease [3]": {"tested_on": "rice blast disease", "details": "application concentration 50 ppm; rice (Nanatsuboshi), spray; lesion area after 6 days"}}, "note": "Where two headings read alike, the source gives them in different places."}
{"smiles": "COC(=O)NCc1cc(/C(C)=N/OCc2cccc(C)n2)ccc1Cl", "note": "[Pyribencarb, pyribencarb]", "values": [{"measurement": "Control value", "setting": "rice blast disease [1]", "result": 40.0}, {"measurement": "Control value", "setting": "rice blast disease [2]", "result": 18.8}, {"measurement": "Control value", "setting": "rice blast disease [3]", "result": 86.0}]}
